Reference: patent US20140296216A1, “PYRIMIDO[4,5-D]PYRIMIDINYL COMPOUNDS, PHARMACEUTICAL COMPOSITIONS AND USES THEREOF” (GUANGZHOU INSTITUTE OF BIOMEDICINE AND HEALTH, CHINESE …, priority 2011, published 2014)

Legend:
EGFRL861Q = EGFRL861Q (Homo sapiens, UniProt P00533, L861Q); assay: In vitro enzymatic activity assay (Z'-LYTE), EGFR L861Q; type: biochemical; details: Z'-LYTE FRET peptide assay; read-out: EGFRL861Q kinase activity (IC50)
From the text: (§1) In vitro enzymatic activity assay: using Z′-LYTE™ technology (detect fluorescence, coupled-enzyme format, based on the differential sensitivity of phosphorylated and non-phosphorylated peptides to proteolytic cleavage), based on FRET, using Z′ LYTE™ FRET peptide substrate, detect the activity of compounds against enzymatic. […] After one hour, site specific protease which can recognize and cleaves non-phosphorylated FRET-peptide. After another hour, using an excitation wavelength of 400 nm excites, then detect the […] at 445 nm and 520 nm.

EGFRWT = EGFRWT (Homo sapiens, UniProt P00533); assay: In vitro enzymatic activity assay (Z'-LYTE), wild type EGFR; type: biochemical; details: Z'-LYTE FRET peptide assay; read-out: EGFRWT kinase activity (IC50)
Chain of EGFRWT (P00533 25-1210): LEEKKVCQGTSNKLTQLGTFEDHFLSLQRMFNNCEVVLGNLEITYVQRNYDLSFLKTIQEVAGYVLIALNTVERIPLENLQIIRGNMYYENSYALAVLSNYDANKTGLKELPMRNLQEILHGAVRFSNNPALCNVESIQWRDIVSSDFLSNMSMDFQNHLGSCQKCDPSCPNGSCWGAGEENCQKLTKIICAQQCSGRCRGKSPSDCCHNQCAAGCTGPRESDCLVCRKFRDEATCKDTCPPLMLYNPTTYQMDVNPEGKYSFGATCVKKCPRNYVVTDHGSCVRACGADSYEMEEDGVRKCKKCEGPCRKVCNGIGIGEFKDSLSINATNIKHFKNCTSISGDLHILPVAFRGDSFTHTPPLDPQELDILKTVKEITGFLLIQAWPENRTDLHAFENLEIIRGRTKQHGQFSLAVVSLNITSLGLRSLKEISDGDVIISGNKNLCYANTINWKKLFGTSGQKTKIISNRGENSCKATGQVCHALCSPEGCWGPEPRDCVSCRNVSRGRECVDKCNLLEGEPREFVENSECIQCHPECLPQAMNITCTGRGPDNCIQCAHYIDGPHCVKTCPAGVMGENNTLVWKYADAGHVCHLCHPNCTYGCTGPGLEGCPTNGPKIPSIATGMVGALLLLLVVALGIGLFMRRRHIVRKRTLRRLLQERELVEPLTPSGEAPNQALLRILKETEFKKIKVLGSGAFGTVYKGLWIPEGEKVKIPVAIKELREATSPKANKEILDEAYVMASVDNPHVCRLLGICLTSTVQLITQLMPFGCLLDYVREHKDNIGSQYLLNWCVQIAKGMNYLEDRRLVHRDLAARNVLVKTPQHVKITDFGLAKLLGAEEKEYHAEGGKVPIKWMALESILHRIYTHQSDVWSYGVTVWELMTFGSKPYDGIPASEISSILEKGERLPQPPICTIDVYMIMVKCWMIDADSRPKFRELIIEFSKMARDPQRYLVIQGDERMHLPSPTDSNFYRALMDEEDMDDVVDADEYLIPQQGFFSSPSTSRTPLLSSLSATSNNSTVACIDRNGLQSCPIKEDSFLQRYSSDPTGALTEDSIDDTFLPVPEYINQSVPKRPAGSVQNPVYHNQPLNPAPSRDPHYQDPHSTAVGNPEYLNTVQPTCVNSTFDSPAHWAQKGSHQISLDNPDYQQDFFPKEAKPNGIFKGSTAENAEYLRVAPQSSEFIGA
From the text: as §1

[1] = system: H1975 (lung cancer cells, EGFR L858R&T790M); assay: Cell proliferation by MTT, H1975; type: cell-based; details: Homo sapiens, NCI-H1975, read-out: H1975 50% inhibitory concentration (IC50), 72 h
[2] = system: NCI-H820 (lung cancer cells); assay: Cell proliferation by MTT, NCI-H820; type: cell-based; details: NCI-H820, read-out: NCI-H820 50% inhibitory concentration (IC50), 72 h
[3] = system: A431 (Human epidermal carcinoma, EGFR high expression); assay: Cell proliferation by MTT, A431; type: cell-based; details: A-431, read-out: A431 50% inhibitory concentration (IC50), 72 h
EGFRL858R = EGFRL858R (Homo sapiens, UniProt P00533, L858R); assay: In vitro enzymatic activity assay (Z'-LYTE), EGFR L858R; type: biochemical; details: Z'-LYTE FRET peptide assay; read-out: EGFRL858R kinase activity (IC50)
Chain of EGFRL858R (P00533 25-1210 L858R): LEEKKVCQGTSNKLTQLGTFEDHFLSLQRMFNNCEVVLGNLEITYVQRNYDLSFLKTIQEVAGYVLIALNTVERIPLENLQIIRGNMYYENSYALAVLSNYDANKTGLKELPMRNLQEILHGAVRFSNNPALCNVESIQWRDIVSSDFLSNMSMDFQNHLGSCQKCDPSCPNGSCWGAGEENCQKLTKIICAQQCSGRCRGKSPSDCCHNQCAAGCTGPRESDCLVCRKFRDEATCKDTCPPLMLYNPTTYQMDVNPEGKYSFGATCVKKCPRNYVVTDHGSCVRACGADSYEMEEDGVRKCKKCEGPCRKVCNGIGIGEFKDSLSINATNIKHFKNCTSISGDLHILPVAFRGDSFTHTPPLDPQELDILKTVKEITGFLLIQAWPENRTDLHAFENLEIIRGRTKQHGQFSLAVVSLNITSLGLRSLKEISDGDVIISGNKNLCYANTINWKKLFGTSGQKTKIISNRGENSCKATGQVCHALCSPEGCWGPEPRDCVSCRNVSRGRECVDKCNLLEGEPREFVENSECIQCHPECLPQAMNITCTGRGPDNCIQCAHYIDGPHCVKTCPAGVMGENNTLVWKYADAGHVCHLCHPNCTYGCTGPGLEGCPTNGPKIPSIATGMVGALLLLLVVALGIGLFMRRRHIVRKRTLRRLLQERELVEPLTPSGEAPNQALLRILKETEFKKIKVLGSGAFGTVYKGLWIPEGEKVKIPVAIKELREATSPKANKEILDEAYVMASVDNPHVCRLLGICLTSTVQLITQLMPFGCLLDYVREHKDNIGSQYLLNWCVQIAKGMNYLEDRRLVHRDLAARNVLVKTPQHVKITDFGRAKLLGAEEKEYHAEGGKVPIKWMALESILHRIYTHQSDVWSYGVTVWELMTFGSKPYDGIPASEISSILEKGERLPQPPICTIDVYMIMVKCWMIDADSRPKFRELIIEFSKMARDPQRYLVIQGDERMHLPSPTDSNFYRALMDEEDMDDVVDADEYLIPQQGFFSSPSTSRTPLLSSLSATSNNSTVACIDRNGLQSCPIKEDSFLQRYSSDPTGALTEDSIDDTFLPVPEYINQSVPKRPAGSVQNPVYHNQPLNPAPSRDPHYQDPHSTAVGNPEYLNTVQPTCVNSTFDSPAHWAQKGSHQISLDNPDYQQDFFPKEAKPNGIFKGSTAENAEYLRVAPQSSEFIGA
From the text: as §1

[4] = system: HCC827 (lung cancer cells, EGFR E746-A750 deletion); assay: Cell proliferation by MTT, HCC827; type: cell-based; details: Homo sapiens, HCC827, read-out: HCC827 50% inhibitory concentration (IC50), 72 h
EGFRL858R + T790M = EGFRL858R + T790M (Homo sapiens, UniProt P00533, L858R/T790M); assay: In vitro enzymatic activity assay (Z'-LYTE), EGFR L858R + T790M; type: biochemical; details: Z'-LYTE FRET peptide assay; read-out: EGFRL858R + T790M kinase activity (IC50)
Chain of EGFRL858R + T790M (P00533 25-1210 T790M/L858R): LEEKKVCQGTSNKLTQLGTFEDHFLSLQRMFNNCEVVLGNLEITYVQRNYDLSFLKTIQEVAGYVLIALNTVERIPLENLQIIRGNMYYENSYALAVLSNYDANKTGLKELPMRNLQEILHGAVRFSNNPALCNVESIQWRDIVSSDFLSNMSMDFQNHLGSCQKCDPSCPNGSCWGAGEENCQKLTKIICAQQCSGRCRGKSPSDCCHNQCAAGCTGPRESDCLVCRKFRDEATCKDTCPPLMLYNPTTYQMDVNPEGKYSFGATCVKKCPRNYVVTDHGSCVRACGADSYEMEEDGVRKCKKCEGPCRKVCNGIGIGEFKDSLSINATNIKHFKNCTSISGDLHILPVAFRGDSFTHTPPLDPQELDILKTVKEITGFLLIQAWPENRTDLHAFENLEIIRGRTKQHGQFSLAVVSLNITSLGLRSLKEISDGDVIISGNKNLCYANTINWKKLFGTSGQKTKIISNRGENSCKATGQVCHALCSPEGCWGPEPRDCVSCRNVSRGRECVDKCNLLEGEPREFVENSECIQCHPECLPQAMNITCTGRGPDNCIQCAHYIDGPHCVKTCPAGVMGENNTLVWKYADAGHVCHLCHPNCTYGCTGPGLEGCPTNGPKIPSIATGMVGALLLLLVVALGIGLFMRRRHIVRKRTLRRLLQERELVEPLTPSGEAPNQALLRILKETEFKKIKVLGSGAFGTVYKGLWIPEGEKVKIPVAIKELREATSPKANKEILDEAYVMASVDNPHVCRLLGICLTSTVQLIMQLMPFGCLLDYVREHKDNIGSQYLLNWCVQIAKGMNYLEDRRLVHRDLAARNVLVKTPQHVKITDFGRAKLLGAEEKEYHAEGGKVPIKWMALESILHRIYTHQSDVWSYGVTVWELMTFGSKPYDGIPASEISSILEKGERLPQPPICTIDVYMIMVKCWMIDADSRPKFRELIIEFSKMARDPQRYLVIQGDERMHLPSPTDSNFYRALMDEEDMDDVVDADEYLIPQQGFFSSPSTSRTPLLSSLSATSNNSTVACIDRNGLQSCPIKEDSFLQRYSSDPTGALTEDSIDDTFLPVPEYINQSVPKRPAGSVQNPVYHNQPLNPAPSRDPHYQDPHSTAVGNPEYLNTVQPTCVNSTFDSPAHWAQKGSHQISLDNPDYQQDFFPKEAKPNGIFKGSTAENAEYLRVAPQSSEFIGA
From the text: as §1

EGFR T790M kinase = target: T1, EGFR T790M kinase (Homo sapiens, UniProt P00533, T790M); assay: In vitro enzymatic activity assay (Z'-LYTE), EGFR T790M; type: biochemical; details: Z'-LYTE FRET peptide assay; read-out: EGFRT790M kinase activity (IC50)
T1 construct: purchased invitrogen PV4803
T1 sequence (P00533 25-1210 T790M): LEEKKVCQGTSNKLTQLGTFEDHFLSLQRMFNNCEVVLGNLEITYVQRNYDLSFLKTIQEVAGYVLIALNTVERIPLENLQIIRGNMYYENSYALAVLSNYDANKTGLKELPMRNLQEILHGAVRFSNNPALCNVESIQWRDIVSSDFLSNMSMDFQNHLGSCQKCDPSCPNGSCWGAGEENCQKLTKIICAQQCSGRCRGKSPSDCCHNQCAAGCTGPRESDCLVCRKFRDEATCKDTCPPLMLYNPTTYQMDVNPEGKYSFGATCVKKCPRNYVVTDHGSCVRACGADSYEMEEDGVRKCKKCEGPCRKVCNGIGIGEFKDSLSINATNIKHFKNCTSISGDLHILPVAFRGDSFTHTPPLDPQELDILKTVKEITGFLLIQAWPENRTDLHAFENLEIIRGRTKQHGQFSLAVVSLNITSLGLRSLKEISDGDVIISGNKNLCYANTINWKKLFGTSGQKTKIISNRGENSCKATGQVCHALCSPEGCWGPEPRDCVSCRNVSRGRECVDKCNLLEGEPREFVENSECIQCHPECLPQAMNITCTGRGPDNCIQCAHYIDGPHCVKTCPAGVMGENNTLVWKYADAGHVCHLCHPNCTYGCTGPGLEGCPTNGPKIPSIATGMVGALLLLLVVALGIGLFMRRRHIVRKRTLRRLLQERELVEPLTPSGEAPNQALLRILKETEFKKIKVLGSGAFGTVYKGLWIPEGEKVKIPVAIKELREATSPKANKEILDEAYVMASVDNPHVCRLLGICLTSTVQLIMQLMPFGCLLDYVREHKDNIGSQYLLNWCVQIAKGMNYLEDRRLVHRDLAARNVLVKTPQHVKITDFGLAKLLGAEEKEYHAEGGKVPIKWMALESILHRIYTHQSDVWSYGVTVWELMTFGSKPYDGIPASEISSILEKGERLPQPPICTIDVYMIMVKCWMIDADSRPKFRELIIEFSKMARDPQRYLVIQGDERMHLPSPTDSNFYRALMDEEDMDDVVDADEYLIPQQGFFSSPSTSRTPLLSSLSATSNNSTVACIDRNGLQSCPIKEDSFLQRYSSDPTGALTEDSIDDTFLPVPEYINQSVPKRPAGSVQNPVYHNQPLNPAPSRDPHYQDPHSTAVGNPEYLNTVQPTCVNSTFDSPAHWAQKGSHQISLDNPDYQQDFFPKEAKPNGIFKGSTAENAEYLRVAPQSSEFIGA
From the text: as §1

Compound | IC50 (EGFRL861Q) | IC50 (EGFRWT) | IC50 [1] | IC50 [2] | IC50 [3] | IC50 (EGFRL858R) | IC50 [4] | IC50 (EGFRL858R + T790M) | IC50 (EGFR T790M kinase)
C=CC(=O)Nc1cccc(N2C(=O)N(C)Cc3cnc(Nc4ccc(N5CCCCC5)cc4OC)nc32)c1 [C-EGF11, N-(3-(7-(2-methoxy-4-(piperidin-1-yl)phenylamino)-3-methyl-2-oxo-3,4-dihydropyrimido[4,5-d]pyrimidin-1(2H)-yl)phenyl)acrylamide] | ≤ 10 nM | 10 to 100 nM | 2560 nM | > 100000 nM | 17700 nM | 10 to 100 nM | 310 nM | 10 to 100 nM | 100 to 1000 nM
C=CC(=O)Nc1cccc(N2C(=O)N(C)Cc3cnc(Nc4ccc(N5CCC(N6CCN(C)CC6)CC5)cc4)nc32)c1 [Compound X003, N-(3-(3-methyl-7-(4-(4-(4-methylpiperazin-1-yl)piperidin-1-yl)phenylamino)-2-oxo-3,4-dihydropyrimido[4,5-d]pyrimidin-1(2H)-yl)phenyl)acrylamide] | ≤ 10 nM | ≤ 10 nM | 179 nM | > 100000 nM | 3440 nM | ≤ 10 nM | 125 nM | ≤ 10 nM | ≤ 10 nM
C=CC(=O)Nc1cccc(N2C(=O)N(C(C)C)Cc3cnc(Nc4ccc(N5CCN(C)CC5)cc4OC)nc32)c1 [C-EGF24, N-(3-(3-isopropyl-7-(2-methoxy-4-(4-methylpiperazin-1-yl)phenylamino)-2-oxo-3,4-dihydropyrimido[4,5-d]pyrimidin-1(2H)-yl)phenyl)acrylamide] | ≤ 10 nM | ≤ 10 nM | 129 nM | > 100000 nM | 24700 nM | ≤ 10 nM | 0.2 nM | ≤ 10 nM | ≤ 10 nM
C=CC(=O)Nc1cccc(N2C(=O)N(C)Cc3cnc(Nc4ccc(N5CCC(N(C)C)CC5)cc4OC)nc32)c1 [C-EGF13, N-(3-(7-(4-(4-(dimethylamino)piperidin-1-yl)-2-methoxyphenylamino)-3-methyl-2-oxo-3,4-dihydropyrimido[4,5-d]pyrimidin-1(2H)-yl)phenyl)acrylamide] | ≤ 10 nM | ≤ 10 nM | 568 nM | > 100000 nM | > 100000 nM | ≤ 10 nM | 198 nM | ≤ 10 nM | ≤ 10 nM
C=CC(=O)Nc1cccc(N2C(=O)N(C)Cc3cnc(Nc4ccc(OCCN5CCOCC5)cc4OC)nc32)c1 [Compound X008, N-(3-(7-(2-methoxy-4-(2-morpholinoethoxy)phenylamino)-3-methyl-2-oxo-3,4-dihydropyrimido[4,5-d]pyrimidin-1(2H)-yl)phenyl)acrylamide] | ≤ 10 nM | ≤ 10 nM | 1100 nM | > 100000 nM | 29900 nM | ≤ 10 nM | 179 nM | ≤ 10 nM | 10 to 100 nM
C=CC(=O)Nc1cccc(N2C(=O)N(C)Cc3cnc(Nc4ccc(N5CCOCC5)cc4OC)nc32)c1 [C-EGF08, N-(3-(7-(2-methoxy-4-morpholinophenylamino)-3-methyl-2-oxo-3,4-dihydropyrimido[4,5-d]pyrimidin-1(2H)-yl)phenyl)acrylamide] | 10 to 100 nM | 10 to 100 nM | 159 nM | > 100000 nM | 21200 nM | 10 to 100 nM | 159 nM | 10 to 100 nM | 10 to 100 nM
C=CC(=O)Nc1cccc(N2C(=O)N(C)Cc3cnc(Nc4ccc(N5CCSCC5)cc4OC)nc32)c1 [C-EGF09, N-(3-(7-(2-methoxy-4-thiomorpholinophenylamino)-3-methyl-2-oxo-3,4-dihydropyrimido[4,5-d]pyrimidin-1(2H)-yl)phenyl)acrylamide] | ≤ 10 nM | 10 to 100 nM | 379 nM | > 100000 nM | 10700 nM | 10 to 100 nM | 212 nM | 10 to 100 nM | 10 to 100 nM
C=CC(=O)Nc1cccc(N2C(=O)N(C)Cc3cnc(Nc4ccc(N5CCSCC5)cc4)nc32)c1 [Compound X005, N-(3-(3-methyl-2-oxo-7-(4-thiomorpholinophenylamino)-3,4-dihydropyrimido[4,5-d]pyrimidin-1(2H)-yl)phenyl)acrylamide] | ≤ 10 nM | ≤ 10 nM | 333 nM | > 100000 nM | 16200 nM | ≤ 10 nM | 23 nM | ≤ 10 nM | ≤ 10 nM
C=CC(=O)Nc1cccc(N2C(=O)N(C)Cc3cnc(N4CCN(C)CC4)nc32)c1 [C-EGF19, N-(3-(3-methyl-7-(4-methylpiperazin-1-yl)-2-oxo-3,4-dihydropyrimido[4,5-d]pyrimidin-1(2H)-yl)phenyl)acrylamide] | 100 to 1000 nM | ≥ 10000 nM | 12100 nM | 95700 nM | > 100000 nM | ≥ 10000 nM | > 100000 nM | 1000 to 10000 nM | ≥ 10000 nM
C=CC(=O)Nc1cccc(N2C(=O)N(C)Cc3cnc(Nc4ccc(N5CCN(C)CC5)cc4)nc32)c1 [x001, N-(3-(3-methyl-7-(4-(4-methylpiperazin-1-yl)phenylamino)-2-oxo-3,4-dihydropyrimido[4,5-d]pyrimidin-1(2H)-yl)phenyl)acrylamide] | ≤ 10 nM | ≤ 10 nM | 115 nM | > 100000 nM | 3970 nM | ≤ 10 nM | 29 nM | ≤ 10 nM | ≤ 10 nM
C=CC(=O)Nc1cccc(N2C(=O)N(C)Cc3cnc(Nc4ccc(N5CCC(N6CCN(C)CC6)CC5)cc4OC)nc32)c1 [C-EGF14, N-(3-(7-(2-methoxy-4-(4-(4-methylpiperazin-1-yl)piperidin-1-yl)phenylamino)-3-methyl-2-oxo-3,4-dihydropyrimido[4,5-d]pyrimidin-1(2H)-yl)phenyl)acrylamide] | ≤ 10 nM | ≤ 10 nM | 1220 nM | > 100000 nM | > 100000 nM | ≤ 10 nM | 188 nM | 10 to 100 nM | 10 to 100 nM
C=CC(=O)Nc1cccc(N2C(=O)N(C)Cc3cnc(Nc4ccc(N5CCCC5)cc4OC)nc32)c1 [C-EGF12, N-(3-(7-(2-methoxy-4-(pyrrolidin-1-yl)phenylamino)-3-methyl-2-oxo-3,4-dihydropyrimido[4,5-d]pyrimidin-1(2H)-yl)phenyl)acrylamide] | ≤ 10 nM | 10 to 100 nM | 1530 nM | 35600 nM | 8160 nM | 10 to 100 nM | 409 nM | 10 to 100 nM | 100 to 1000 nM
C=CC(=O)Nc1cccc(N2C(=O)N(C)Cc3cnc(Nc4ccc(N5CCN(C)CC5)cc4F)nc32)c1 [C-EGF18, N-(3-(7-(2-fluoro-4-(4-methylpiperazin-1-yl)phenylamino)-3-methyl-2-oxo-3,4-dihydropyrimido[4,5-d]pyrimidin-1(2H)-yl)phenyl)acrylamide] | ≥ 1000 nM | 1000 to 10000 nM | > 100000 nM | 4850 nM | > 100000 nM | ≥ 10000 nM | > 100000 nM | 1000 to 10000 nM | ≥ 10000 nM
